Assay results taken from patent US20200270309A1, “MALEIMIDE GROUP-MODIFIED ANGIOGENESIS INHIBITOR HM-1 AND USE THEREOF” (NANJING ANJI BIOLOGICAL TECHNOLOGY CO., LTD, priority 2017, published 2020).
Where two headings read alike, the source gives them in different places. Marks after values point to notes of the source that are not given here. Ends that are not written are not given here. Peptide text beside a SMILES is read from it. * marks the point of attachment. Mal(CH2CH2O)6CH2CH2CO = O=C1C=CC(=O)N1CCOCCOCCOCCOCCOCCOCCC(=O)*; X18 = O=C1C=CC(=O)N1CCOCCOCCOCCOCCOCCOCCCCCCCC(=O)*; X22 = O=C1C=CC(=O)N1CCOCCOCCOCCOCCOCCOCCCCCC(=O)*; X7 = O=C1C=CC(=O)N1CCOCCOCCOCCOCCOCCOCCCCCCC(=O)*; X23 = O=C1C=CC(=O)N1CCOCCOCCOCCOCCOCCOCCCCC(=O)*; X14 = O=C1C=CC(=O)N1CCOCCOCCOCCOCCOCCCCCCC(=O)*; X29 = O=C1C=CC(=O)N1CCOCCOCCOCCOCCOCCOCCCC(=O)*; X9 = O=C1C=CC(=O)N1CCOCCOCCOCCOCCOCCCCCCCC(=O)*; X11 = O=C1C=CC(=O)N1CCOCCOCCOCCOCCOCCCCCC(=O)*; X26 = O=C1C=CC(=O)N1CCOCCOCCOCCOCCOCCCCC(=O)*; X5 = O=C1C=CC(=O)N1CCOCCOCCOCCOCCOCCOCC(=O)*

Key:
[1] = test system: xylene-induced ear swelling; test: Xylene-induced mouse ear swelling; format: in vivo; details: Kunming mice, positive control, dose 200 mg/kg, once a day for 5 days
Protocol: Kunming mice were taken, a normal saline group was taken as a blank control group, an aspirin group (200 mg/kg) was taken as a positive control group, and X1-X90 administration groups were taken as test groups. The mice were injected once a day for 5 consecutive days. The blank control group was given an equal volume of normal saline. One hour after the last administration, 0.05 mL of xylene was applied to both sides of the right ear of each mouse to cause inflammation, while no drug was applied to the left ear as a normal ear. Two hours later, the mice were put to death by dislocation. Two ears were cut along the auricle. Ear pieces were taken with a puncher and weighed, and the swelling degree and the swelling rate were calculated. Swelling degree=right ear piece weight-left ear piece weight, swelling rate=(swelling degree/left ear piece weight)*100%. Statistical t-test was conducted on the experimental results. *P<0.05 indicates significant difference, and **P<0.01 indicates extremely significant difference.

splenic lymphocytes = test: Proliferation of splenic lymphocytes in mice (ConA, MTT); format: cell-based; details: dose 20 μM (Dex group), mouse splenic lymphocytes, 48 h
Protocol: Spleens of mice were taken out under aseptic conditions, washed with blank 1640 culture medium 3 times, ground with a 5 mL syringe core, filtered with a 200-mesh sieve, made into a single cell suspension. The suspension was centrifuged (1000 rpm×5 min), and supernatant was removed. Red blood cells were lysed by Tris-NH4Cl, and placed in ice water bath for 4 min and centrifuged (1000 rpm×5 min). The supernatant was removed, and the cells were washed twice with sterile PBS. Finally, RPMI 1640 culture solution (5 mL) containing 10% calf serum was added to suspend the cells. The cells were counted and the cell concentration was adjusted to 5×10^6 cells/mL, and the cells were cultured in a 96-well culture plate.
Blank control group, concanavalin A (ConA) group and dexamethasone (Dex) group were set in the experiment, and polypeptide X1-X90 groups were set as test groups. After 100 μL of splenic lymphocytes suspension per well was added into each group, 100 μL of blank 1640 culture solution was added into the blank control group, ConA was added into the ConA group, Dex was added into the Dex group, and ConA was added into the test groups on the basis of adding different concentrations of polypeptides X1-X90. The cells were static cultured at 37° C. in a cell incubator for 48 h. After the cultivation was completed, 20 μL of MTT was added to each well, and the cultivation was continued for 4 h. Finally, all the solutions in each well were discarded. 100 μL DMSO was added to each well and shaken, and the OD value at 570 nm was detected with a microplate reader. Five parallel experiments were set in each well.

[2] = test system: IL-1β production by mouse peritoneal macrophages; test: IL-1β production by mouse peritoneal macrophages (ELISA); format: cell-based; details: dose 20 μM
Protocol: Mice were injected intraperitoneally with 1 mL of broth culture medium (containing 6% of starch). Three days later, mice peritoneal macrophages were taken aseptically and washed twice with 1640 culture medium, and the cell concentration was adjusted to 2×10^6 cells/mL. The solutions were injected into 24-well culture plates at 1 mL per well. The cells were incubated in a cell incubator for 3 h and vibrated once every 30 min to make the cells fully adhere to the wall. Then, the cells were washed twice with a culture solution to remove non-adhered cells. PBS was added to the blank group, positive drug Dex was added to the positive group, no drug was added to the model group, and polypeptides X1-X90 with low, medium and high concentrations were added to the test groups; and the cells were continuously cultured for 48 h after administration, and then centrifuged at 1000 r/min for 15 min. The supernatant was collected as a sample to be tested for IL-1β activity.

[3] = test system: carrageenan-induced toe swelling; test: Carrageenan-induced toe swelling in rats; format: in vivo; details: SD rats, Dex 10 mg/kg once a day for 3 d
Protocol: The rats were injected once a day, and the model group was given the same volume of normal saline for 3 d and fed normally. […] The foot swelling degree was calculated according to the following formula: foot swelling degree (mL)=foot volume after inflammation-foot volume before inflammation. The number of milliliters of overflow liquid was recorded (method: a ballpoint pen is used to circle the protruding point of the right joint as a measurement mark, and the right hind feet of each rat are sequentially placed into the volume measurer, so that the hind limbs are exposed outside the barrel, and the immersion depth is at the coincidence of the circle and the liquid level. After the foot enters the liquid, the liquid level rises, and the volume of overflow liquid is the volume of the right hind foot of the rat, and the normal volume of the right hind foot of each rat is measured in sequence).

[4] = Half-lives and pharmacokinetic parameters of polypeptides vs HM-1; details: in vivo

Molecule | AUC(0-inf) [4] [ng·h/mL] | MRT inf [4] [h] | clearance [4] [mL/min/kg] | half-life ([4]; T1/2β (half-life)) [h] | also measured
CC(=O)Oc1ccccc1C(=O)O [Aspirin] | – | – | – | – | Swelling degree (mg) [1]: 3.08 ± 0.31** mg; inhibition at 200 mg/kg ([1]; Mus musculus, 120 h, read-out: Inhibition rate (%)): 51%
C[C@@H]1C[C@H]2[C@@H]3CCC4=CC(=O)C=C[C@]4(C)[C@@]3(F)[C@@H](O)C[C@]2(C)[C@@]1(O)C(=O)CO [Dex] | – | – | – | – | A570 nm/A630 nm (splenic lymphocytes): 0.3918 ± 0.1127; Inhibition rate (%) (splenic lymphocytes): 52.65%; Inhibition rate ([2]; IL-1β production, vs model group): 62.95%; IL-1β ([2]; mouse peritoneal macrophages, 48 h, ELISA): 352.06 ± 17.29 pg/mL; Swelling degree 1 h ([3]; 1 h after carrageenan): 0.22 ± 0.10 mg; Swelling degree 3 h ([3]; 3 h after carrageenan): 0.24 ± 0.11 mg; Swelling degree 5 h ([3]; 5 h after carrageenan): 0.29 ± 0.11 mg; Swelling degree 7 h ([3]; 7 h after carrageenan): 0.23 ± 0.08 mg
C[C@H](NC(=O)CNC(=O)[C@H](CCCNC(=N)N)NC(=O)CCCCOCCOCCOCCOCCOCCN1C(=O)C=CC1=O)C(=O)N[C@@H](CC(=O)O)C(=O)N[C@@H](CCCNC(=N)N)C(=O)N[C@@H](C)C(=O)NCC(=O)NCC(=O)NCC(=O)NCC(=O)N[C@@H](CCCNC(=N)N)C(=O)NCC(=O)N[C@@H](CC(=O)O)C(=O)O [X80] (X26-RGADRAGGGGRGD-OH) | 34500 ± 7330 | 61.6 ± 11.7 | 0.483 | 42.72 ± 0.25 | –
C[C@H](NC(=O)CNC(=O)[C@H](CCCNC(=N)N)NC(=O)CCCCCOCCOCCOCCOCCOCCN1C(=O)C=CC1=O)C(=O)N[C@@H](CC(=O)O)C(=O)N[C@@H](CCCNC(=N)N)C(=O)N[C@@H](C)C(=O)NCC(=O)NCC(=O)NCC(=O)NCC(=O)N[C@@H](CCCNC(=N)N)C(=O)NCC(=O)N[C@@H](CC(=O)O)C(=O)O [X81] (X11-RGADRAGGGGRGD-OH) | 30700 ± 8170 | 54.9 ± 11.5 | 0.543 | 38.06 ± 0.28 | –
C[C@H](NC(=O)CNC(=O)[C@H](CCCNC(=N)N)NC(=O)CCCCCCOCCOCCOCCOCCOCCN1C(=O)C=CC1=O)C(=O)N[C@@H](CC(=O)O)C(=O)N[C@@H](CCCNC(=N)N)C(=O)N[C@@H](C)C(=O)NCC(=O)NCC(=O)NCC(=O)NCC(=O)N[C@@H](CCCNC(=N)N)C(=O)NCC(=O)N[C@@H](CC(=O)O)C(=O)O [X82] (X14-RGADRAGGGGRGD-OH) | 25700 ± 7220 | 46 ± 13.6 | 0.648 | 31.9 ± 0.35 | –
C[C@H](NC(=O)CNC(=O)[C@H](CCCNC(=N)N)NC(=O)CCCCCCCOCCOCCOCCOCCOCCN1C(=O)C=CC1=O)C(=O)N[C@@H](CC(=O)O)C(=O)N[C@@H](CCCNC(=N)N)C(=O)N[C@@H](C)C(=O)NCC(=O)NCC(=O)NCC(=O)NCC(=O)N[C@@H](CCCNC(=N)N)C(=O)NCC(=O)N[C@@H](CC(=O)O)C(=O)O [X83] (X9-RGADRAGGGGRGD-OH) | 29200 ± 7640 | 52.3 ± 11.7 | 0.57 | 36.23 ± 0.28 | –
C[C@H](NC(=O)CNC(=O)[C@H](CCCNC(=N)N)NC(=O)COCCOCCOCCOCCOCCOCCN1C(=O)C=CC1=O)C(=O)N[C@@H](CC(=O)O)C(=O)N[C@@H](CCCNC(=N)N)C(=O)N[C@@H](C)C(=O)NCC(=O)NCC(=O)NCC(=O)NCC(=O)N[C@@H](CCCNC(=N)N)C(=O)NCC(=O)N[C@@H](CC(=O)O)C(=O)O [X84] (X5-RGADRAGGGGRGD-OH) | 29100 ± 8230 | 52.1 ± 10.3 | 0.573 | 36.09 ± 0.28 | –
C[C@H](NC(=O)CNC(=O)[C@H](CCCNC(=N)N)NC(=O)CCOCCOCCOCCOCCOCCOCCN1C(=O)C=CC1=O)C(=O)N[C@@H](CC(=O)O)C(=O)N[C@@H](CCCNC(=N)N)C(=O)N[C@@H](C)C(=O)NCC(=O)NCC(=O)NCC(=O)NCC(=O)N[C@@H](CCCNC(=N)N)C(=O)NCC(=O)N[C@@H](CC(=O)O)C(=O)O [X85] ({Mal(CH2CH2O)6CH2CH2CO}-RGADRAGGGGRGD-OH) | 33100 ± 8520 | 59.1 ± 10.4 | 0.505 | 40.97 ± 0.26 | –
C[C@H](NC(=O)CNC(=O)[C@H](CCCNC(=N)N)NC(=O)CCCOCCOCCOCCOCCOCCOCCN1C(=O)C=CC1=O)C(=O)N[C@@H](CC(=O)O)C(=O)N[C@@H](CCCNC(=N)N)C(=O)N[C@@H](C)C(=O)NCC(=O)NCC(=O)NCC(=O)NCC(=O)N[C@@H](CCCNC(=N)N)C(=O)NCC(=O)N[C@@H](CC(=O)O)C(=O)O [X86] (X29-RGADRAGGGGRGD-OH) | 25800 ± 8050 | 46.2 ± 10.2 | 0.645 | 32.03 ± 0.31 | –
C[C@H](NC(=O)CNC(=O)[C@H](CCCNC(=N)N)NC(=O)CCCCOCCOCCOCCOCCOCCOCCN1C(=O)C=CC1=O)C(=O)N[C@@H](CC(=O)O)C(=O)N[C@@H](CCCNC(=N)N)C(=O)N[C@@H](C)C(=O)NCC(=O)NCC(=O)NCC(=O)NCC(=O)N[C@@H](CCCNC(=N)N)C(=O)NCC(=O)N[C@@H](CC(=O)O)C(=O)O [X87] (X23-RGADRAGGGGRGD-OH) | 33400 ± 8450 | 59.8 ± 10.6 | 0.498 | 41.42 ± 0.31 | –
C[C@H](NC(=O)CNC(=O)[C@H](CCCNC(=N)N)NC(=O)CCCCCOCCOCCOCCOCCOCCOCCN1C(=O)C=CC1=O)C(=O)N[C@@H](CC(=O)O)C(=O)N[C@@H](CCCNC(=N)N)C(=O)N[C@@H](C)C(=O)NCC(=O)NCC(=O)NCC(=O)NCC(=O)N[C@@H](CCCNC(=N)N)C(=O)NCC(=O)N[C@@H](CC(=O)O)C(=O)O [X88] (X22-RGADRAGGGGRGD-OH) | 31800 ± 7130 | 56.9 ± 10.1 | 0.523 | 39.45 ± 0.33 | –
C[C@H](NC(=O)CNC(=O)[C@H](CCCNC(=N)N)NC(=O)CCCCCCOCCOCCOCCOCCOCCOCCN1C(=O)C=CC1=O)C(=O)N[C@@H](CC(=O)O)C(=O)N[C@@H](CCCNC(=N)N)C(=O)N[C@@H](C)C(=O)NCC(=O)NCC(=O)NCC(=O)NCC(=O)N[C@@H](CCCNC(=N)N)C(=O)NCC(=O)N[C@@H](CC(=O)O)C(=O)O [X89] (X7-RGADRAGGGGRGD-OH) | 33100 ± 7150 | 59.1 ± 11.8 | 0.505 | 40.95 ± 0.27 | –
C[C@H](NC(=O)CNC(=O)[C@H](CCCNC(=N)N)NC(=O)CCCCCCCOCCOCCOCCOCCOCCOCCN1C(=O)C=CC1=O)C(=O)N[C@@H](CC(=O)O)C(=O)N[C@@H](CCCNC(=N)N)C(=O)N[C@@H](C)C(=O)NCC(=O)NCC(=O)NCC(=O)NCC(=O)N[C@@H](CCCNC(=N)N)C(=O)NCC(=O)N[C@@H](CC(=O)O)C(=O)O [X90] (X18-RGADRAGGGGRGD-OH) | 27600 ± 8160 | 49.3 ± 11.5 | 0.605 | 34.18 ± 0.31 | –
H-RGADRAGGGGRGD [HM-1, Arg-Gly-Ala-Asp-Arg-Ala-Gly-Gly-Gly-Gly-Arg-Gly-Asp] | – | – | – | – | AUC(0-inf) ([4]; read-out: AUC0-∞): 32800 ± 8410 ng·h/mL; clearance ([4]; read-out: CL (converted)): 24.8 mL/min/kg; MRT inf ([4]; read-out: MRT0-∞): 0.068 ± 0.012 h; half-life ([4]; read-out: T1/2β (half-life) (converted)): 0.35 ± 0.14 h; half-life ([4]; read-out: half-life (converted)): 0.34 h
